Active and inactive are the calls of the source. The rule behind the calls is not given here.

In the data set the test system is CCRIS mutagenicity, Ames/micronucleus/aberration tests. The data set can be described thus: CCRIS mutagenicity studies.
Setting [1] is: Test System: AMES SALMONELLA TYPHIMURIUM, Strain/Indicator: TA98, Metabolic Activation: NONE, Method: STANDARD PLATE.
The mark [2] stands for this setting: Test System: AMES SALMONELLA TYPHIMURIUM, Strain/Indicator: TA102, Metabolic Activation: NONE, Method: STANDARD PLATE.
Setting [3] is: Test System: AMES SALMONELLA TYPHIMURIUM, Strain/Indicator: TA1535, Metabolic Activation: NONE, Method: STANDARD PLATE.
The mark [4] stands for this setting: Test System: AMES SALMONELLA TYPHIMURIUM, Strain/Indicator: TA1537, Metabolic Activation: NONE, Method: STANDARD PLATE.
[5] abbreviates: Test System: E. COLI, Strain/Indicator: WP2 (HCR), Metabolic Activation: NONE, Method: STANDARD PLATE.
Setting [6] is: Test System: AMES SALMONELLA TYPHIMURIUM, Strain/Indicator: TA100, Metabolic Activation: NONE, Method: STANDARD PLATE.

As for `S=c1nc[nH]c2nc[nH]c12`, the mutagenic call runs as follows: (End Point: IN VITRO MICRONUCLEUS, Test System: CHL/IU CELLS, Metabolic Activation: NONE) “active; positive”; (End Point: IN VITRO MICRONUCLEUS, Test System: CHO CELLS, Metabolic Activation: RAT, LIVER, S-9, AROCLOR 1254) “inactive; negative”; (Test System: AMES SALMONELLA TYPHIMURIUM, Strain/Indicator: TA97, Metabolic Activation: HAMSTER, LIVER, S-9, AROCLOR 1254 (30%), Method: PREINCUBATION) “inactive; negative”; (Test System: AMES SALMONELLA TYPHIMURIUM, Strain/Indicator: TA97, Metabolic Activation: NONE, Method: PREINCUBATION) “inactive; negative”; (Test System: AMES SALMONELLA TYPHIMURIUM, Strain/Indicator: TA97, Metabolic Activation: NONE, Method: STANDARD PLATE) “inactive; negative”; (Test System: AMES SALMONELLA TYPHIMURIUM, Strain/Indicator: TA97, Metabolic Activation: RAT, LIVER, S-9, AROCLOR 1254 (30%), Method: PREINCUBATION) “inactive; negative”. Further, the mutagenic call runs as follows: (Test System: AMES SALMONELLA TYPHIMURIUM, Strain/Indicator: TA97, Metabolic Activation: RAT, LIVER, S-9, PHENOBARBITAL AND ALPHA-NAPHTHOFLAVONE, Method: STANDARD PLATE) “inactive; negative”; (Test System: AMES SALMONELLA TYPHIMURIUM, Strain/Indicator: TA98, Metabolic Activation: HAMSTER, LIVER, S-9, AROCLOR 1254 (30%), Method: PREINCUBATION) “inactive; negative”; (Test System: AMES SALMONELLA TYPHIMURIUM, Strain/Indicator: TA98, Metabolic Activation: NONE, Method: PREINCUBATION) “inactive; negative”; (Test System: AMES SALMONELLA TYPHIMURIUM, Strain/Indicator: TA98, Metabolic Activation: NONE, Method: SPIRAL ASSAY) “inactive; negative”; under setting [1], “inactive; negative”; (Test System: AMES SALMONELLA TYPHIMURIUM, Strain/Indicator: TA98, Metabolic Activation: RAT, LIVER, S-9, AROCLOR 1254 (30%), Method: PREINCUBATION) “inactive; negative”. Moreover, the mutagenic call by setting is: (Test System: AMES SALMONELLA TYPHIMURIUM, Strain/Indicator: TA98, Metabolic Activation: RAT, LIVER, S-9, AROCLOR 1254, Method: SPIRAL ASSAY) “inactive; negative”; (Test System: AMES SALMONELLA TYPHIMURIUM, Strain/Indicator: TA98, Metabolic Activation: RAT, LIVER, S-9, AROCLOR 1254, Method: STANDARD PLATE) “inactive; negative”; (Test System: AMES SALMONELLA TYPHIMURIUM, Strain/Indicator: TA98, Metabolic Activation: RAT, LIVER, S-9, PHENOBARBITAL AND ALPHA-NAPHTHOFLAVONE, Method: STANDARD PLATE) “inactive; negative”; (Test System: AMES SALMONELLA TYPHIMURIUM, Strain/Indicator: TA100, Metabolic Activation: HAMSTER, LIVER, S-9, AROCLOR 1254 (30%), Method: PREINCUBATION) “inactive; negative”; (Test System: AMES SALMONELLA TYPHIMURIUM, Strain/Indicator: TA100, Metabolic Activation: NONE, Method: PREINCUBATION) “inactive; negative”; (Test System: AMES SALMONELLA TYPHIMURIUM, Strain/Indicator: TA100, Metabolic Activation: NONE, Method: SPIRAL ASSAY) “inactive; negative”. The mutagenic call is “inactive; negative” (Test System: AMES SALMONELLA TYPHIMURIUM, Strain/Indicator: TA100, Metabolic Activation: RAT, LIVER, S-9, AROCLOR 1254 (30%), Method: PREINCUBATION); “inactive; negative” (Test System: AMES SALMONELLA TYPHIMURIUM, Strain/Indicator: TA100, Metabolic Activation: RAT, LIVER, S-9, AROCLOR 1254, Method: SPIRAL ASSAY); “inactive; negative” (Test System: AMES SALMONELLA TYPHIMURIUM, Strain/Indicator: TA100, Metabolic Activation: RAT, LIVER, S-9, AROCLOR 1254, Method: STANDARD PLATE); “inactive; negative” (Test System: AMES SALMONELLA TYPHIMURIUM, Strain/Indicator: TA100, Metabolic Activation: RAT, LIVER, S-9, PHENOBARBITAL AND ALPHA-NAPHTHOFLAVONE, Method: STANDARD PLATE); “inactive; negative” under setting [2]; “active; positive” (Test System: AMES SALMONELLA TYPHIMURIUM, Strain/Indicator: TA1535, Metabolic Activation: HAMSTER, LIVER, S-9, AROCLOR 1254 (30%), Method: PREINCUBATION). For the same molecule, the mutagenic call (Test System: AMES SALMONELLA TYPHIMURIUM, Strain/Indicator: TA1535, Metabolic Activation: NONE, Method: PREINCUBATION) was “active; positive”; the mutagenic call (Test System: AMES SALMONELLA TYPHIMURIUM, Strain/Indicator: TA1535, Metabolic Activation: NONE, Method: SPIRAL ASSAY) was “active; positive”; the mutagenic call under setting [3] was “active; positive”; the mutagenic call (Test System: AMES SALMONELLA TYPHIMURIUM, Strain/Indicator: TA1535, Metabolic Activation: RAT, LIVER, S-9, AROCLOR 1254 (30%), Method: PREINCUBATION) was “active; positive”; the mutagenic call (Test System: AMES SALMONELLA TYPHIMURIUM, Strain/Indicator: TA1535, Metabolic Activation: RAT, LIVER, S-9, AROCLOR 1254, Method: SPIRAL ASSAY) is “active; positive”; the mutagenic call (Test System: AMES SALMONELLA TYPHIMURIUM, Strain/Indicator: TA1535, Metabolic Activation: RAT, LIVER, S-9, AROCLOR 1254, Method: STANDARD PLATE) was “active; positive”. Besides, the mutagenic call is “active; positive” (Test System: AMES SALMONELLA TYPHIMURIUM, Strain/Indicator: TA1535, Metabolic Activation: RAT, LIVER, S-9, PHENOBARBITAL AND ALPHA-NAPHTHOFLAVONE, Method: STANDARD PLATE); “inactive; negative” (Test System: AMES SALMONELLA TYPHIMURIUM, Strain/Indicator: TA1537, Metabolic Activation: NONE, Method: SPIRAL ASSAY); “inactive; negative” under setting [4]; “inactive; negative” (Test System: AMES SALMONELLA TYPHIMURIUM, Strain/Indicator: TA1537, Metabolic Activation: RAT, LIVER, S-9, AROCLOR 1254, Method: SPIRAL ASSAY); “inactive; negative” (Test System: AMES SALMONELLA TYPHIMURIUM, Strain/Indicator: TA1537, Metabolic Activation: RAT, LIVER, S-9, AROCLOR 1254, Method: STANDARD PLATE); “active; positive” (Test System: CHINESE HAMSTER V-79, Strain/Indicator: V-79/6-THIOGUANINE, Metabolic Activation: NONE, Method: SUSPENSION/PLATE). The mutagenic call reads like this: (Test System: CHINESE HAMSTER V-79, Strain/Indicator: V-79/6-THIOGUANINE, Metabolic Activation: RAT, LIVER, HEPATOCYTES, Method: SUSPENSION/PLATE) “active; positive”; under setting [5], “inactive; negative”; (Test System: UDS RAT HEPATOCYTES, Strain/Indicator: THY INCORP, Metabolic Activation: NONE, Method: AUTORADIOGRAPHY (SERUM-FREE MEDIA)) “inactive; negative”.

Consider `Cc1ccc(-c2nc3ccccc3o2)cc1`, for which the mutagenic call under setting [1] is “inactive; negative” and the mutagenic call (Test System: AMES SALMONELLA TYPHIMURIUM, Strain/Indicator: TA98, Metabolic Activation: S-9, Method: STANDARD PLATE) is “inactive; negative”.

`FC(F)(F)c1ccc(Cl)nc1`: the mutagenic call was “active; positive” (Test System: MOUSE LYMPHOMA, Strain/Indicator: L5178Y (TK+/TK-), Metabolic Activation: NONE) and “active; positive” (Test System: MOUSE LYMPHOMA, Strain/Indicator: L5178Y (TK+/TK-), Metabolic Activation: RAT, LIVER, S-9, AROCLOR 1254).

As to `O=C(CCBr)N1CCN(C(=O)CCBr)CC1`, the mutagenic call is, setting by setting: under setting [1], “inactive; negative”; under setting [6], “active; positive”; under setting [2], “inactive; negative”; under setting [4], “inactive; negative”; under setting [5], “active; positive”.

Take `CS(=O)CCC(=O)N1[C@@H](c2ccccc2O)SC[C@H]1C(=O)O` (stereo not given in full): the mutagenic call was “inactive; negative” under setting [1]; “inactive; negative” under setting [6]; “inactive; negative” under setting [3]; “inactive; negative” under setting [4]; “inactive; negative” (Test System: AMES SALMONELLA TYPHIMURIUM, Strain/Indicator: TA1538, Metabolic Activation: NONE, Method: STANDARD PLATE); “inactive; negative” (Test System: E. COLI, Strain/Indicator: WP2, Metabolic Activation: NONE, Method: STANDARD PLATE). Also, the mutagenic call (Test System: E. COLI, Strain/Indicator: WP2 UVRA, Metabolic Activation: NONE, Method: STANDARD PLATE) was “inactive; negative”.

Source of the values: PubChem BioAssay AID1259407 (Chemical Carcinogenesis Research Information System (CCRIS), 2018).
